# Measured values from US20150023904A1, “NEW APPLICATION OF PVP-I” (priority 2013, published 2015).
# System: patients suffering premature ejaculation
# Experiment: IELT before and after treatment in patients suffering premature ejaculation (Groups a, b, c)
# Type: in vivo, human
# Excerpt: 31 patients (27±5 years old) suffering premature ejaculation for 0.5 to 2 years who have abandoned other therapies for at least 1 month before participating in this experiment. With normal sexual desire, and without drug abuse experience, suspected drug use, or contact with radioactive materials, all these patients are composed of 10 with circumcision, 1 with renal insufficiency, 2 with unsatisfactory sexual life after marriage, and 1 with weak erection.
# Taking intravaginal ejaculatin latency time (IELT) as the experimental parameter, if the time after insertion into the vagina is less than 1 minute, deem it as 1 minute. Take IELT for 3 times before and after the treatment, then calculate the mean value.
# The experiment was performed by observation of three groups: a, b and c, wherein,
# IELT shall be calculated after 1 month of drug taking respectively.
# All the data were analyzed statistically with statistical software SPSS 18.0, and for single variables, t was inspected by taking the inspection standard α=0.05, with the inspection results as below: codes a, b and c represent different groups, the data following denote treatment time, 1 signifies IELT before treatment, 2 represents IELT after treatment and N as the number of patients.
structure (smiles),measurement,setting,value
CN[C@H]1CC[C@@H](c2ccc(Cl)c(Cl)c2)c2ccccc21 [sertraline],number of patients with prolonged IELT after treatment,"Group a N=4, Group b N=13, Group c N=14, from scatter plots FIG. 2-4",4
same,"IELT after treatment, mean value","after treatment, IELT taken 3 times and averaged, calculated after 1 month of drug taking, IELT less than 1 minute deemed 1 minute",3.75 min
same,"IELT before treatment, mean value","before treatment (baseline of the same group), IELT taken 3 times and averaged",1.25 min
same,patients with side effects or adverse reaction,"lethargy, dysphoria, bruxism and nausea, disappeared 2 to 3 days after drug withdrawal",5
